Consider 1 molecule from patent US20120128580A1, “PRESELECTION OF SUBJECTS FOR THERAPEUTIC TREATMENT WITH ELESCLOMOL BASED ON HYPOXIC STATUS” (SYNTA PHARMACEUTICALS CORP., priority 2010, published 2012).

Series [1] is described as follows: Half-life of elesclomol in humans. It counts as in vivo. The following applies: administered alone or with other chemotherapeutic agents. The source says:
Elesclomol has been tested or has been approved for testing in clinical trials for treatment of metastatic melanoma, prostate cancer, solid tumors, recurrent or persistent ovarian epithelial cancer, fallopian tube cancer, and primary peritoneal cancer. The half-life of elesclomol in humans has been determined to be about an hour when administered alone or with other chemotherapeutic agents (e.g., with paxitaxel or carboplatinin).

Another series has as its system cancer. In words: Treatment outcomes by level of hypoxia in historical samples. It counts as in vivo, human. On the procedure: An analysis using samples collected from subjects during treatment is performed to determine the efficacy of elesclomol for the treatment of cancer based on the level of hypoxia of the tumor based on markers assessed prior to and/or during the treatment of the subjects. […] The samples are analyzed for the level of hypoxia based on the amount or activity of a marker present. […] Various portions of the tumor tissue can also be analyzed when sufficient material is available, e.g., adjacent to the necrotic core, in the center of the tumor, adjacent to or including tumor vasculature, adjacent to normal tissue, etc. One or more markers of hypoxia are measured in each of the subjects, e.g., at least one isoform or subunit of lactate dehydrogenase (LDH) or hypoxia inducible factor (HIF); at least one pro-angiogenic form of vascular endothelial growth factor (VEGF), phosphorylated VEGF receptor (pKDR) 1, 2, or 3, neurolipin 1 (NRP-1), pyruvate dehydrokinase (PDH-K), and ornithine decarboxylase (ODC). […]

For series [2], the system named is non-small cell lung carcinoma (NSCLC). In words: Phase II study, elesclomol with paclitaxel and carboplatin versus paclitaxel and carboplatin alone. The following applies: previously untreated NSCLC Stage IIIB or IV, i.v. every three weeks for six cycles. The format is in vivo, human.
Protocol: For example, a Phase II study was performed to test elesclomol in combination with paclitaxel and carboplatin, as compared to paclitaxel and carboplatin alone, in 86 subjects with previously untreated non-small cell lung carcinoma (NSCLC) and non-resectable, locally advanced, or metastatic disease (Stage IIIB or IV) were randomized 1:1 into treatment groups for treatment with carboplatnin plus elesclomol (CP+E) or carboplatnin alone (CP). Subjects were dosed intravenously with 200 mg/m^2 of paclitaxel and AUC=6 of carboplatnin either with or without 266 mg/m^2 of elesclomol every three weeks for six cycles, likely resulting in complete clearance of elesclomol between doses.

Consider `CN(NC(=O)CC(=O)NN(C)C(=S)c1ccccc1)C(=S)c1ccccc1` [Elesclomol, N-malonyl-bis(N′-methyl-N′-thiobenzoylhydrazide)], for which, in series [1], the half-life entry was “about an hour”. Besides, the “response of subjects with a low level of hypoxia compared to a high level of hypoxia” value with cancer was “better response”. The “Median Progression Free Survival” value in series [2] (High LDH) amounted to 2.8 months; in series [2] (Low LDH), 4.6 months.
